Where two headings read alike, the source gives them in different places.
System: M.tuberculosis (Erdman)
Format: in vivo
Conditions: ESAT-6 10 µg/dose three times

Compound | Log10 resistance Lung, Experiment I ([…]) [log10] | Log10 resistance Spleen, Experiment I ([…]) [log10] | Log10 resistance Lung, Experiment I (log10 reduction of bacterial load in lung 6 weeks after aerosol challenge) [log10] | Log10 resistance Spleen, Experiment I (log10 reduction of bacterial load in spleen 6 weeks after aerosol challenge) [log10]
CCCCCCCCCCCCCCCCCC[N+](C)(C)CCCCCCCCCCCCCCCCCC.[Br-] [DDA, dimethyl dioctadecyl ammonium bromide] | < 0.05 | <0.05 | – | –
monophosphoryl lipid A [MPL] | – | – | < 0.05 | <0.05

Source: EP1183044B1, “ADJUVANT COMBINATIONS FOR IMMUNIZATION AND VACCINES” (priority 1999, dated 2000)
